According to patent publication US20230339937A1, “CONDENSED RING COMPOUNDS THAT INHIBIT H-PGDS” (SATO PHARMACEUTICAL CO., LTD., priority 2020, published 2023):

Biological target: T1, Recombinant human H-PGDS (Homo sapiens, UniProt O60760)
T1 construct: made in house; host or cells: E. coli
Test: H-PGDS inhibitory activity (prostaglandin D2 production from prostaglandin H2, measured by LC-MS/MS)
Type: biochemical
Conditions: recombinant human H-PGDS 1.0 nM expressed in E. coli; prostaglandin H2 25 μM; preincubated 15 minutes on ice, reacted on ice for 1 minute; concentration that inhibits prostaglandin D2 production by 50%
In short: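 PGD2 formed from 25 µM prostaglandin H2 during a 1-min on-ice reaction was measured by LC-MS/MS after an FeCl2/citric acid stop. The enzyme was 1.0 nM E. coli-expressed human H-PGDS in Tris-HCl pH 8.0 buffer with MgCl2, reduced glutathione and γ-globulin, preincubated with compound for 15 min on ice. Production was normalised to DMSO controls minus the no-enzyme background.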

T1 sequence (O60760 whole entry): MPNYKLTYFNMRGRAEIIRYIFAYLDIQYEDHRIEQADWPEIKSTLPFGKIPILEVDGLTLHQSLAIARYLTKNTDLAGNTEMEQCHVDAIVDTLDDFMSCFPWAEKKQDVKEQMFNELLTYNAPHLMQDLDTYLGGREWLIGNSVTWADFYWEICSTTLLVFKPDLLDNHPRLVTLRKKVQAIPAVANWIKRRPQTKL

Row | IC50 [nM] | SMILES
1 | 12 | C=Cc1cnc(-c2ccc(C(=O)N[C@H]3CC[C@H](C(C)(C)O)CC3)cc2)c2ccoc12 [Example 137, N-[trans-4-(2-hydroxypropan-2-yl)cyclohexyl]-4-(7-vinylfuro[3,2-c]pyridin-4-yl)benzamide]
2 | 4.8 | O=C(N[C@@H]1CCC[C@H](O)C1)c1ccc(-c2nccc3occc23)cc1 (relative stereo) [Example 265, 4-(furo[3,2-c]pyridin-4-yl)-N-(cis-3-hydroxycyclohexyl)benzamide]
3 | 1.4 | O=C(NCc1cccc(Cl)c1)c1ccc(-c2nccc3[nH]ccc23)cc1 [Example 57, N-(3-chlorobenzyl)-4-(1H-pyrrolo[3,2-c]pyridin-4-yl)benzamide]
4 | 1.2 | Cn1cc(N2CCC(NC(=O)c3ccc(-c4nccc5occc45)cc3)CC2)cn1 [Example 252, 4-(furo[3,2-c]pyridin-4-yl)-N-[1-(1-methyl-1H-pyrazol-4-yl)piperidin-4-yl]benzamide]
5 | 3 | O=C(NC1CCN(c2ccc(CO)cn2)CC1)c1ccc(-c2nccc3occc23)cc1 [Example 169, 4-(furo[3,2-c]pyridin-4-yl)-N-{1-[5-(hydroxymethyl)pyridin-2-yl]piperidin-4-yl}benzamide]
6 | 27 | COCCCNC(=O)c1ccc(-c2nccc3occc23)cc1 [Example 79, 4-(furo[3,2-c]pyridin-4-yl)-N-(3-methoxypropyl) benzamide]
7 | 4 | COc1ccc(CN2CCC(NC(=O)c3ccc(-c4nccc5occc45)cc3)CC2)cc1Cl [Example 244, N-[1-(3-chloro-4-methoxybenzyl)piperidin-4-yl]-4-(furo[3,2-c]pyridin-4-yl)benzamide]
8 | 1.2 | Cn1cc(CNC(=O)c2ccc(-c3nccc4[nH]ccc34)cc2)cn1 [Example 55, N-[(1-methyl-1H-pyrazol-4-yl)methyl]-4-(1H-pyrrolo[3,2-c]pyridin-4-yl)benzamide]
9 | 14 | O=C(N[C@@H]1CN(c2ncc(CO)cn2)C[C@@H]1O)c1ccc(-c2nccc3occc23)cc1 [Example 208, 4-(furo[3,2-c]pyridin-4-yl)-N-((3R,4S)-4-hydroxy-1-[5-(hydroxymethyl)pyrimidin-2-yl]pyrrolidin-3-yl)benzamide]
10 | 1.5 | CC(C)(O)CNC(=O)c1ccc(-c2nccc3[nH]ccc23)cc1 [Example 32, N-(2-hydroxy-2-methylpropyl)-4-(1H-pyrrolo[3,2-c]pyridin-4-yl)benzamide]
11 | 1.8 | O=C(N[C@H]1CC[C@H](N2CCC(F)(F)C2)CC1)c1ccc(-c2nccc3occc23)cc1 [Example 306, N-[trans-4-(3,3-difluoropyrrolidin-1-yl)cyclohexyl]-4-(furo[3,2-c]pyridin-4-yl)benzamide]
12 | 1.3 | Cn1ccc(CNC(=O)c2ccc(-c3nccc4[nH]ccc34)cc2)n1 [Example 53, N-[(1-methyl-1H-pyrazol-3-yl)methyl]-4-(1H-pyrrolo[3,2-c]pyridin-4-yl)benzamide]
13 | 1.4 | CC(C)(O)C(=O)N1CCC(NC(=O)c2ccc(-c3nccc4occc34)cc2)CC1 [Example 245, 4-(furo[3,2-c]pyridin-4-yl)-N-[1-(2-hydroxy-2-methylpropanoyl)piperidin-4-yl]benzamide]
14 | 2 | CN(C)c1ccnc(N2CCC(NC(=O)c3ccc(-c4nccc5occc45)cc3)CC2)n1 [Example 161, N-{1-[4-(dimethylamino)pyrimidin-2-yl]piperidin-4-yl}-4-(furo[3,2-c]pyridin-4-yl)benzamide]
15 | 1.7 | O=C(NCc1ccccc1Cl)c1ccc(-c2nccc3[nH]ccc23)cc1 [Example 56, N-(2-chlorobenzyl)-4-(1H-pyrrolo[3,2-c]pyridin-4-yl)benzamide]
16 | 1.7 | Cc1ccnc(N2CCC(NC(=O)c3ccc(-c4nccc5occc45)cc3)CC2)c1 [Example 150, 4-(furo[3,2-c]pyridin-4-yl)-N-[1-(4-methylpyridin-2-yl)piperidin-4-yl]benzamide]
17 | 1.5 | Cc1ccnc(N2CCC(NC(=O)c3ccc(-c4nccc5occc45)cc3)CC2)n1 [Example 155, 4-(furo[3,2-c]pyridin-4-yl)-N-[1-(4-methylpyrimidin-2-yl)piperidin-4-yl]benzamide]
18 | 15 | O=C(NCCCCCCO)c1ccc(-c2nccc3occc23)cc1 [Example 90, 4-(furo[3,2-c]pyridin-4-yl)-N-(6-hydroxyhexyl) benzamide]
19 | 1.3 | Cc1cc(CNC(=O)c2ccc(-c3nccc4[nH]ccc34)cc2)nn1C [Example 38, N-[(1,5-dimethyl-1H-pyrazol-3-yl)methyl]-4-(1H-pyrrolo[3,2-c]pyridin-4-yl)benzamide]
20 | 5.2 | O=C(N[C@H]1C[C@@H](O)C1)c1ccc(-c2nccc3occc23)cc1 [Example 269, 4-(furo[3,2-c]pyridin-4-yl)-N-(cis-3-hydroxycyclobutyl)benzamide]

Row | IC50 [nM] | SMILES
21 | 2.6 | O=C(N[C@H]1CC[C@H](O)CC1)c1ccc(-c2nccc3occc23)cc1 [Example 256, 4-(furo[3,2-c]pyridin-4-yl)-N-(trans-4-hydroxycyclohexyl)benzamide]
22 | 1.2 | N#Cc1cnc(N2CC[C@H](NC(=O)c3ccc(-c4nccc5occc45)cc3)C2)nc1 [Example 201, (S)—N-[1-(5-cyanopyrimidin-2-yl)pyrrolidin-3-yl]-4-(furo[3,2-c]pyridin-4-yl)benzamide]
23 | 3.2 | CC(N[C@H]1CC[C@H](NC(=O)c2ccc(-c3nccc4occc34)cc2)CC1)C(F)F (stereo partly drawn) [Example 302, N-{trans-4-[(1,1-difluoropropan-2-yl)amino]cyclohexyl}-4-(furo[3,2-c]pyridin-4-yl)benzamide]
24 | 1.2 | Cc1cc2occc2c(-c2ccc(C(=O)NC3CCN(C(=O)C4CC4)CC3)cc2)n1 [Example 335, N-[1-(cyclopropanecarbonyl)piperidin-4-yl]-4-(6-methylfuro[3,2-c]pyridin-4-yl)benzamide]
25 | 3.8 | O=C(N[C@@H]1CCC[C@@H](O)C1)c1ccc(-c2nccc3occc23)cc1 (relative stereo) [Example 266, 4-(furo[3,2-c]pyridin-4-yl)-N-(trans-3-hydroxycyclohexyl)benzamide]
26 | 0.83 | O=C(NCC1CCCC1)c1ccc(-c2nccc3[nH]ccc23)cc1 [Example 36, N-(cyclopenthyl-methyl)-4-(1H-pyrrolo[3,2-c]pyridin-4-yl)benzamide]
27 | 6.6 | CC(C)(O)[C@H]1CC[C@H](NC(=O)c2ccc(-c3nccc4occc34)c(O)c2)CC1 [Example 134, 4-(furo[3,2-c]pyridin-4-yl)-3-hydroxy-N-[trans-4-(2-hydroxypropan-2-yl)cyclohexyl]benzamide]
28 | 1.6 | O=C(N[C@@H]1CCC[C@H](O)CC1)c1ccc(-c2nccc3occc23)cc1 (relative stereo) [Example 293, 4-(furo[3,2-c]pyridin-4-yl)-N-(cis-4-hydroxycycloheptyl)benzamide]
29 | 1.9 | CC(C)[C@]1(O)CC[C@@H](NC(=O)c2ccc(-c3nccc4occc34)cc2)CC1 [Example 292, 4-(furo[3,2-c]pyridin-4-yl)-N-(cis-4-hydroxy-4-isopropylcyclohexyl)benzamide]
30 | 5.7 | O=C(Nc1ccccc1F)c1ccc(-c2nccc3occc23)cc1 [Example 110, N-(2-fluorophenyl)-4-(furo[3,2-c]pyridin-4-yl)benzamide]
31 | 1.8 | CCCCCCNC(=O)c1ccc(-c2nccc3[nH]ccc23)cc1 [Example 6, N-hexyl-4-(1H-pyrrolo[3,2-c]pyridin-4-yl)benzamide]
32 | 3.5 | O=C(N[C@H]1CC[C@@](O)(C(F)(F)F)CC1)c1ccc(-c2nccc3occc23)cc1 [Example 264, 4-(furo[3,2-c]pyridin-4-yl)-N-[trans-4-hydroxy-4-(trifluoromethyl)cyclohexyl]benzamide]
33 | 1.7 | O=C(NCc1cccnc1)c1ccc(-c2nccc3[nH]ccc23)cc1 [Example 10, N-(pyridin-3-ylmethyl)-4-(1H-pyrrolo[3,2-c]pyridin-4-yl)benzamide]
34 | 1.6 | CCC(=O)N1CCC(NC(=O)c2ccc(-c3nccc4occc34)cc2)CC1 [Example 234, 4-(furo[3,2-c]pyridin-4-yl)-N-(1-propionylpiperidin-4-yl)benzamide]
35 | 1.2 | O=C(N[C@H]1CCN(c2cccnn2)C1)c1ccc(-c2nccc3occc23)cc1 [Example 230, (S)-4-(furo[3,2-c]pyridin-4-yl)-N-[1-(pyridazin-3-yl)pyrrolidin-3-yl]benzamide]
36 | 2.3 | CC(=O)Nc1cnc(N2CCC(NC(=O)c3ccc(-c4nccc5occc45)cc3)CC2)nc1 [Example 189, N-[1-(5-acetamidopyrimidin-2-yl)piperidin-4-yl]-4-(furo[3,2-c]pyridin-4-yl)benzamide]
37 | 0.63 | O=C(NCCCN1CCS(=O)(=O)CC1)c1ccc(-c2nccc3[nH]ccc23)cc1 [Example 46, N-[3-(1,1-dioxidothiomorpholino)propyl]-4-(1H-pyrrolo[3,2-c]pyridin-4-yl)benzamide]
38 | 2.3 | Cc1cc2occc2c(-c2ccc(C(=O)N[C@H]3CC[C@H](O)CC3)cc2)n1 [Example 333, N-(trans-4-hydroxycyclohexyl)-4-(6-methylfuro[3,2-c]pyridin-4-yl)benzamide]
39 | 1.2 | O=C(NC12CCC(O)(CC1)CC2)c1ccc(-c2nccc3occc23)c(F)c1 [Example 345, 3-fluoro-4-(furo[3,2-c]pyridin-4-yl)-N-(4-hydroxybicyclo[2.2.2]octan-1-yl)benzamide]
40 | 6.3 | O=C(NC1CCN(c2ncc(Br)cn2)CC1)c1ccc(-c2nccc3occc23)cc1 [Example 154, N-[1-(5-bromopyrimidin-2-yl)piperidin-4-yl]-4-(furo[3,2-c]pyridin-4-yl)benzamide]
